From PubChem BioAssay (NCI)
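Interpolation was linear, between the two tested concentrations surrounding the appropriate level; five concentrations were tested over 48 hours in 96-well plates. TGI marks complete inhibition of growth.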

Tests used:
Experiment in all cases: NCI-60 cell line screen, 48 h
[1] = system: HOP-62 NSCLC
[2] = system: DLD-1 colon
[3] = system: MCF7 breast
[4] = system: KM20L2 colon
[5] = system: LXFL 529 NSCLC
[6] = system: TK-10 renal
[7] = system: CAKI-1 renal
[8] = system: DMS 273 small cell lung
[9] = system: M19-MEL melanoma
[10] = system: DMS 114 small cell lung
[11] = system: SNB-78 CNS
[12] = system: RPMI-8226 leukemia
[13] = system: MDA-MB-435

| Structure (SMILES) | TGI [1] [µM] | TGI [2] [µM] | TGI [3] [µM] | TGI [4] [µM] | TGI [5] [µM] | TGI [6] [µM] | TGI [7] [µM] | TGI [8] [µM] | TGI [9] [µM] | TGI [10] [µM] | TGI [11] [µM] | TGI [12] [µM] | TGI [13] [µM] |
| --- | --- | --- | --- | --- | --- | --- | --- | --- | --- | --- | --- | --- | --- |
| COc1ccc(NC(=O)CC(=O)n2nc(-c3ccccc3)c(N=Nc3ccc(C)cc3)c2-c2ccccc2)cc1 | 38.4 | > 100 | > 85.2 | > 100 | > 100 | 55.1 | > 100 | > 100 | > 100 | > 80.1 | 61.2 | > 100 | > 100 |
| COC(=O)CC[C@@H](NC(=O)C(C)NC(=O)COC1C(O)C(COC(=O)CCCCCCCCCCNC(=O)c2ccc([N+](=O)[O-])c3[nH]c4cc(Br)ccc4c(=O)c23)OC(OCc2ccccc2)C1NC(C)=O)C(N)=O (stereo partly drawn) | > 100 | > 100 | – | > 100 | 66.3 | > 100 | > 100 | > 100 | > 100 | > 100 | > 100 | > 100 | – |
| NNC(=S)N/N=C(\c1nc2ccc(Cl)cc2[nH]c1=O)C(O)c1ccc(Cl)cc1Cl (stereo not drawn) | > 100 | > 100 | – | > 100 | > 100 | > 100 | > 100 | > 100 | > 100 | > 100 | > 100 | > 100 | – |
| COc1ccc(-c2cc(-c3ccco3)c(C#N)c(=O)n2C2OC(OC(=O)c3ccccc3)C(OC(=O)c3ccccc3)C2OC(=O)c2ccccc2)cc1 (stereo not drawn) | > 100 | > 100 | – | > 100 | > 100 | 54.7 | > 100 | > 100 | > 100 | > 100 | > 100 | > 100 | – |
| COc1cc2c3c(c1OC)C1(C=CC(=O)C=C1)CC3N(C(=O)OC(C)(C)C(Cl)(Cl)Cl)CC2 (stereo not drawn) | 31.9 | 23.5 | – | 25.2 | 82.9 | > 100 | 50.9 | 24.5 | 24.3 | 22 | 33.8 | 9.04 | – |
| O=c1c2ccccc2oc2nccnc12 | > 100 | > 100 | – | > 100 | > 100 | > 100 | > 100 | > 100 | > 100 | > 100 | > 100 | > 100 | – |
